Target: Indoleamine 2,3-dioxygenase 1 (Homo sapiens, UniProt P14902)
Assay: Inhibitory Activity Assay: IDO1 (His-tag) enzyme(BPS Bioscience), L-tryptophan (Sigma), methylene blue (Sigma), Catalase originated from the liver of cattle (Sigma), L-ascorbic acid (Sigma), glycerol (Sigma), potassium dihydrogen phosphate solution (Sigma), Tween 20 (Sigma), automatic sampling platformLiquid handler (Bravo & Echo), microplate ReaderSpectraMax M5e (Molecular Devices). Test Method of Compounds: The Compounds are Determined by Absorbance Test Method:The tested compounds are dissolved in DMSO to prepare a high concentration of storage solution. The stock solution of reference compound was diluted with DMSO to prepare a 100× solution. In the first column of the working plate, 8 μL above tested compounds and 8 μL 100× reference compound were respectively added as the highest concentration, and then the highest concentrations were subjected to three times dilution to obtain 11 concentrations and prepare 100× solution. 0.5 μL solution was transferred from the above plate to the detection plate. To each well was added 0.5 μL 100× compound solution. For HPE and ZPE control wells, 0.5 μL 100% DMSO was added. 25 μL 2×IDO1 (His-tag) enzyme solution (containing L-ascorbic acid, methylene blue, and catalase) was added to each well. 25 μL reaction solution without IDO1 (His-tag) enzyme was added into HPE control well. The test plate was centrifugated at 1000 rpm for 1 minute to mix well. Then, the test plate was incubated at room temperature for 30 minutes. 25 μL above 2× substrate (L-tryptophan) solution was added to each well. The test plate was centrifugated at 1000 rpm for 1 minute to mix well. The detection plate was placed on ELISA (SpectraMax M5e), the temperature was set at 25° C., and the absorbance (OD value) was measured at 320 nm every 10 minutes till 60 minutes.<p id="p-0313" num="0311">Calculating the increase ratio of absorbance: the slope of the absorbance increase curve from 10 min to 60 min is derived from SpectralMax M5e. […]

Sequence of Indoleamine 2,3-dioxygenase 1 (P14902 whole entry): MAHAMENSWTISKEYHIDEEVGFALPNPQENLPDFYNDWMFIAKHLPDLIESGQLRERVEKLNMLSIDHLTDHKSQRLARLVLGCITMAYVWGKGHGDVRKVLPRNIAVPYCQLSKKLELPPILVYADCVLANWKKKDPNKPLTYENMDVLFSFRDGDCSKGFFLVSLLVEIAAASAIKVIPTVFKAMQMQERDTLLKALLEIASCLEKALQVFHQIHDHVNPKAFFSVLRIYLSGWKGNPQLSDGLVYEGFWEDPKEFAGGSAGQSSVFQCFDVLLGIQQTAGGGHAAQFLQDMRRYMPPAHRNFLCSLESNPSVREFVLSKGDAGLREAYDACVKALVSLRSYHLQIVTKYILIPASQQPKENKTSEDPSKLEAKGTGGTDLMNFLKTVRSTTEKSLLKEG

IC50 | Structure (SMILES)
172 nM | CCNS(=O)(=O)CCCNc1nonc1C(=NO)Nc1ccc(F)c(Br)c1
49 nM | CNS(=O)(=O)CCCNc1nonc1/C(=N/O)Nc1ccc(F)c(Br)c1
281 nM | CC(C)NS(=O)(=O)CCCNc1nonc1/C(=N/O)Nc1ccc(F)c(Br)c1
